Values after ≈ are worked out from the molar mass of the structure shown.
Legend:
Colinus virginianus = conditions: acute, oral, mortality
Oncorhynchus mykiss = conditions: acute; duration: 96 hours; mortality
Apis mellifera = conditions: acute, duration: 24 hours, mortality
Canidae = conditions: chronic; duration: 1 years; oral; Dog Other; hematological
Tagia sp. = conditions: acute; duration: 14 days; mortality
Daphnia magna = conditions: chronic/long-term; duration: 21 days; reproduction
Pimephales promelas = conditions: chronic/long-term; duration: 36 days
Anas platyrhynchos = conditions: reproductive
Mesograpta sp. = assay: LR50; higher = less toxic; conditions: chronic/long-term, mortality

Work on Cc1nc(N(C)C)nc(OC(=O)N(C)C)c1C [Pirimicarb] yielded an LC50 (Colinus virginianus; duration: 5 days, diet) of 394 mg/kg-day, an LD50 (Colinus virginianus; gavage) of 20.9 mg/kg and an LC50 (Oncorhynchus mykiss) of 79 µg/mL (≈ 332 µM). For the same compound, the LD50 (Apis mellifera; dermal) was 53.1 µg/piece, the LD50 (Apis mellifera; oral, unspecified) was 4 µg/piece and the NOAEL (Canidae) was 3.5 mg/kg-day. It also gave an LC50 (Tagia sp.) greater than 60 mg/kg, an NOEC (Daphnia magna) of 0.0009 mg/L and an NOEC (Pimephales promelas) of 10 mg/L. It also gave an LD50 (Rattus norvegicus; acute, oral, F, mortality) of 142 mg/kg, an NOAEL (Rattus norvegicus; acute, oral, gavage, clinical signs) of 10 mg/kg-day and an NOEC (Rattus norvegicus; reproduction developmental) of 81.8 mg/kg-day. For the same compound, the NOEC (Anas platyrhynchos) was 12.1 mg/kg-day, the LR50 (Mesograpta sp.; duration: 16 days) was 14.6 g/ha and the LR50 (Mesograpta sp.; duration: 28 days) was 14.6 g/ha.

Source: EPA's ToxValDB 9.5 (doi:10.2903/j.efsa.2005.43r)
